From PMC5218480 (PLoS ONE, 2017) come the findings set out here.

Molecules are shown by their SMILES.

For this assay, the system named is MV-4-11 cells. Put plainly: Gene expression microarray analysis (Affymetrix PrimeView) and GSEA. Type of assay: cell-based, human. To be noted: gene VPS36; ACY-1035 1 mM; LIST F.

With `Nc1ccc(-c2cccs2)cc1NC(=O)c1ccc2c(c1)cc(C1CC1)n2CCN1CCOCC1` [ACY-1035], the “RFU, VPS36 (ProbeSet 11739960_a_at)” value amounted to 54.57 RFU.
